According to patent publication US20260125370A1, “SULFOXIMINE COMPOUNDS AS HISTONE DEACETYLASE 6 INHIBITOR, AND PHARMACEUTICAL COMPOSITION COMPRISING THE SAME” (CHONG KUN DANG PHARMACEUTICAL CORP., priority 2022, published 2026):

Experiments:
[1] = target: T1, human recombinant HDAC6 (Homo sapiens, UniProt Q9UBN7); assay: HDAC6 enzyme activity inhibition (fluorimetric, in vitro); assay type: biochemical; conditions: samples at 0.1, 1, 10, 100 and 1000 nM
T1 construct: purchased Calbiochem 382180
T1 sequence (Q9UBN7 1-1215): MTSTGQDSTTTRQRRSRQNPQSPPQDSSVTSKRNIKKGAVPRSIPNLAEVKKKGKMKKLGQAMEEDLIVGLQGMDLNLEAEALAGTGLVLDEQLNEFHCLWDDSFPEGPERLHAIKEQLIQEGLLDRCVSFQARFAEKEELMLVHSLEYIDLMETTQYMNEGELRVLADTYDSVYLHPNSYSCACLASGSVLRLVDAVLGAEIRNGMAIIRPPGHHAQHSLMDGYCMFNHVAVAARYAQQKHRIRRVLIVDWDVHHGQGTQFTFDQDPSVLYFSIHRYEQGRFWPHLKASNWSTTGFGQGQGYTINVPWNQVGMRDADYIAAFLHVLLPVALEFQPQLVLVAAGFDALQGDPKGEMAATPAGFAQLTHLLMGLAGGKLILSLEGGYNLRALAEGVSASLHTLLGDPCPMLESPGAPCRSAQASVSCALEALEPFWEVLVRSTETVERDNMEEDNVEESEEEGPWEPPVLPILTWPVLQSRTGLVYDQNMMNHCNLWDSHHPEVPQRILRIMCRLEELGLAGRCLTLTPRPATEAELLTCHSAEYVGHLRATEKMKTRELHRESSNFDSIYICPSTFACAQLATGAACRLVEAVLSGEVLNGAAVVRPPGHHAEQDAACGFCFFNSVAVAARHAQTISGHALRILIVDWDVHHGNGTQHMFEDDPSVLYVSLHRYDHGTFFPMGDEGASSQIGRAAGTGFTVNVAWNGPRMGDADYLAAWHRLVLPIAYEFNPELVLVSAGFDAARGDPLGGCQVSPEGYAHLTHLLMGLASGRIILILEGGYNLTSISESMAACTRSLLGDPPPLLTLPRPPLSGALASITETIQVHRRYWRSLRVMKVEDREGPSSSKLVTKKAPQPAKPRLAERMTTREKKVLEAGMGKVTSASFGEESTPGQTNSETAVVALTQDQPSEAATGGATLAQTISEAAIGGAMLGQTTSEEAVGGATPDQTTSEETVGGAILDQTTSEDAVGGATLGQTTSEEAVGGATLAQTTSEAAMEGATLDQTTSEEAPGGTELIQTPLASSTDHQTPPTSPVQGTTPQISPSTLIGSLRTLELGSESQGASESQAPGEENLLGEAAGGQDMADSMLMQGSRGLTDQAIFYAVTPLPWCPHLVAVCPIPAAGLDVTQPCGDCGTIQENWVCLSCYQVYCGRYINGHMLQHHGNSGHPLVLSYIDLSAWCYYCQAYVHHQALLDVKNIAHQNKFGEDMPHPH
Procedure, shortened: (§1)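 Recombinant human HDAC1 or HDAC6 (0.3 μg) with Fluor de Lys-SIRT1 substrate at […], 60 min at 37 °C, then developer 30 min; fluorescence Ex 360/Em 460. Compounds at 100–10000 nM for HDAC1 and 0.1–1000 nM for HDAC6; IC50 calculated.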

[2] = target: T2, human recombinant HDAC1 (Homo sapiens, UniProt Q13547); assay: HDAC1 enzyme activity inhibition (HDAC1 Fluorimetric Drug Discovery Assay Kit, in vitro); assay type: biochemical; conditions: samples at 100, 1000 and 10000 nM
T2 construct: purchased Enzolifesciences BML-SE456
Procedure, shortened: as §1

T2 sequence (Q13547 whole entry): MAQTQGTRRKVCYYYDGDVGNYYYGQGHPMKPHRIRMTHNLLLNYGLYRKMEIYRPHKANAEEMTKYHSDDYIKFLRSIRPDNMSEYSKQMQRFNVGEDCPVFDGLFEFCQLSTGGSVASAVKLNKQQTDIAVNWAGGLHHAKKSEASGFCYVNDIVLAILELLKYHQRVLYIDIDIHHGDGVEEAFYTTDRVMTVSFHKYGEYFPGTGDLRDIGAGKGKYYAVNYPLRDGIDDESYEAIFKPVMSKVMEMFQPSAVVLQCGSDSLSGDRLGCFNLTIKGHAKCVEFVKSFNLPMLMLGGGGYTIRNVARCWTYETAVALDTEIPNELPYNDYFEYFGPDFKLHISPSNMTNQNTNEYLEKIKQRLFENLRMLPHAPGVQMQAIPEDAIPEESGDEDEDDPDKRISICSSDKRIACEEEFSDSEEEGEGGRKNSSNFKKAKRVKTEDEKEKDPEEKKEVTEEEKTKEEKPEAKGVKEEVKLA

SMILES | IC50 [1] | IC50 [2]
N=S1(=O)CC(N2C[C@@H]3C[C@H]2CN3C(=O)N(Cc2ccc(-c3nnc(C(F)F)o3)cn2)c2ccccc2)C1 (stereo partly drawn) [Compound 84, (1S,4S)—N-[[5-[5-(difluoromethyl)-1,3,4-oxadiazol-2-yl]-2-pyridyl]methyl]-5-(1-imino-1-oxo-thiethan-3-yl)-N-phenyl-2,5-diazabicyclo[2.2.1]heptan-2-carboxamide] | 56 nM | > 10000 nM
CC1CN(C(=O)N(Cc2ccc(-c3nnc(C(F)F)o3)cn2)c2ccccc2)CCS1(=N)=O (stereo not shown) [Compound 85, N-[[5-[5-(difluoromethyl)-1,3,4-oxadiazol-2-yl]-2-pyridyl]methyl]-1-imino-2-methyl-1-oxo-N-phenyl-1,4-thiazinan-4-carboxamide] | 74.6 nM | > 10000 nM
N=S1(=O)CCN(S(=O)(=O)N(Cc2ncc(-c3nnc(C(F)F)o3)s2)c2ccccc2)CC1 [Compound 86, N-[[5-[5-(difluoromethyl)-1,3,4-oxadiazol-2-yl]thiazol-2-yl]methyl]-1-imino-1-oxo-N-phenyl-1,4-thiazinan-4-sulfonamide] | 50.2 nM | > 10000 nM
N=S1(=O)CC(N2C[C@@H]3C[C@H]2CN3c2c(N(Cc3ccc(-c4nnc(C(F)F)o4)cn3)c3ccccc3)c(=O)c2=O)C1 (stereo partly drawn) [Compound 87, 3-[N-[[5-[5-(difluoromethyl)-1,3,4-oxadiazol-2-yl]-2-pyridyl]methyl]anilino]-4-[(1S,4S)-5-(1-imino-1-oxo-thiethane-3-yl)-2,5-diazabicyclo[2.2.1]heptan-2-yl]cyclobut-3-en-1,2-dione] | 37.4 nM | > 10000 nM
N=S1(=O)CC(N2C[C@@H]3C[C@H]2CN3c2c(N(Cc3ccc(-c4nnc(C(F)F)o4)cc3F)c3ccccc3)c(=O)c2=O)C1 (stereo partly drawn) [Compound 89, 3-[N-[[4-[5-(difluoromethyl)-1,3,4-oxadiazol-2-yl]-2-fluoro-phenyl]methyl]anilino]-4-[(1S,4S)-5-(1-imino-1-oxo-thiethan-3-yl)-2,5-diazabicyclo[2.2.1]heptan-2-yl]cyclobut-3-en-1,2-dione] | 34.1 nM | > 10000 nM
CS(=N)(=O)C1CN(C(=O)N(Cc2ccc(-c3nnc(C(F)F)o3)cn2)c2cccc(F)c2)C1 (stereo not shown) [Compound 90, N-[[5-[5-(difluoromethyl)-1,3,4-oxadiazol-2-yl]-2-pyridyl]methyl]-N-(3-fluorophenyl)-3-(methylsulfonimidoyl)azetidin-1-carboxamide] | 47.3 nM | > 10000 nM
CS(=N)(=O)C1CN(C(=O)N(Cc2ccc(-c3nnc(C(F)F)o3)cc2F)c2cccc(F)c2)C1 (stereo not shown) [Compound 91, N-[[4-[5-(difluoromethyl)-1,3,4-oxadiazol-2-yl]-2-fluoro-phenyl]methyl]-N-(3-fluorophenyl)-3-(methylsulfonimidoyl)azetidin-1-carboxamide] | 46 nM | > 10000 nM
N=S1(=O)CC2(CN(C(=O)N(Cc3ccc(-c4nnc(C(F)F)o4)cc3F)c3ccccc3)C2)C1 [Compound 92, N-[[4-[5-(difluoromethyl)-1,3,4-oxadiazol-2-yl]-2-fluoro-phenyl]methyl]-2-imino-2-oxo-N-phenyl-2lambda6-thia-6-azaspiro[3.3]heptan-6-carboxamide] | 93.9 nM | > 10000 nM
